Reference: patent US6444668B1 (Wyeth, priority 1999, dated 2002)
“And” between values parts separate entries of the source, which are not always exact repeats. Identical values can stand only once. Values belong to the molecule of their own block, whether it stands above or below them.

Columns and labels:
[1] = test system: rat uterine decidualization; assay: Rat decidualization assay; format: in vivo; settings: for Estimated average EC50 (decidual response) / Estimated EC50 for uterine wet weight (decidual response): s.c.; for Estimated average EC50 (decidual response): average of dose-response curves; for Estimated EC50 for uterine wet weight (decidual response): individual studies; for Decidualization IC50: half-maximal decrease in EC50 progesterone induced decidual response
Method: 1. Rat Decidualization Assay
b. Animals (RACUC Protocol #5002)
The animals are treated once daily for seven days.
Uteri are removed and trimmed of fat.
Body weight: Mean total animal body weight (default-kg)
Decidual response: [(D-C)/C]x100%

[2] = read-out: Decidualization, percentage inhibition at the dose specified

SMILES: C#C[C@]1(O)CC[C@H]2[C@@H]3CCC4=CC(=O)CC[C@@H]4[C@H]3C(=C)C[C@@]21CC [3-Ketodesogestrel, reference compound]
Estimated average EC50 (decidual response) [1]: 0.10 mg/kg | Estimated EC50 for uterine wet weight (decidual response) [1]: 0.10 mg/kg and 0.06 mg/kg and 0.11 mg/kg

SMILES: CC1(C)OC(=O)Nc2ccc(-c3ccc(F)c(C#N)c3)cc21 [Compound 1, 5-(4,4Dimethyl-2-oxo-1,4-dihydro-2H-benzo[d][1,3]oxazin-6-yl)-2-fluoro-benzonitrile]
inhibition at 1 mg/kg [1, 2]: 80%

SMILES: CC1(C)OC(=O)Nc2ccc(-c3cc(F)cc(C(F)(F)F)c3)cc21 [Compound 2, 6-(3-Fluoro-5-trifluoromethyl-phenyl)-4,4-dimethyl-1,4-dihydro-benzo[d][1,3]oxazin-2-one]
inhibition at 1 mg/kg [1, 2]: 50% | melting point: 207 to 208 °C

SMILES: CC1(C)OC(=O)Nc2ccc(-c3cccc(F)c3)cc21 [Compound 3, 6-(3-Fluoro-phenyl)-4,4-dimethyl-1,4-dihydro-benzo[d][1,3]-oxazin-2-one]
inhibition at 3 mg/kg [1, 2]: 80% | melting point: 181 to 182 °C

SMILES: CC1(C)OC(=O)Nc2ccc(-c3cc(Cl)cc(Cl)c3)cc21 [Compound 4, 6-(3,5dichloro-phenyl)-4,4-dimethyl-1,4-dihydrobenzo-[d][1,3]oxazin-2-one]
inhibition at 1 mg/kg [1, 2]: 60% | melting point: 245 to 246 °C

SMILES: CC1(C)OC(=O)Nc2ccc(-c3cc(C#N)ccc3F)cc21 [Compound 5, 3-(4,4-Dimethyl-2-oxo-1,4-dihydro-2H-benzo[d][1,3]oxazin-6-yl)-4-fluoro-benzonitrile]
inhibition at 1 mg/kg [1, 2]: 60% | melting point: 229 to 230 °C

SMILES: CC1(C)OC(=O)Nc2ccc(-c3cc(F)cc([N+](=O)[O-])c3)cc21 [Compound 6, 6-(3-Fluoro-5-nitro-phenyl)-4,4-dimethyl-1,4dihydro-benzo[d][1,3]oxazin-2-one]
inhibition at 1 mg/kg [1, 2]: 50% | melting point: 260 to 261 °C

SMILES: CC1(C)OC(=O)Nc2ccc(-c3cc(F)cc(Br)c3)cc21 [Compound 8, 6-(3-Bromo-5-fluorophenyl)-4,4-dimethyl-1,4-dihydrobenzo[d][1,3]oxazin-2-one]
inhibition at 3 mg/kg [1, 2]: 50% | melting point: 182 to 183 °C

SMILES: Cc1cc(C#N)sc1-c1ccc2c(c1)C1(CCCCC1)OC(=O)N2 [Compound 10, 5-(1,2-Dihydro-2-oxospiro[4H-3,1-benzoxazine-4,1-cyclohexan]-6-yl)-4-methyl-2-thiophenecabonitrile]
Decidualization, percentage inhibition at the dose specified ([1]; dose 10 mg/kg): 50% @ 1O

SMILES: N#Cc1ccc(-c2ccc3c(c2)C2(CCCCC2)OC(=O)N3)s1 [Compound 11, 5-(1,2-Dihydro-2-oxospiro[4H-3,1-benzoxazine-4,1-cyclohexan]-6-yl)-2-thiophenecarbonitrile]
inhibition at 10 mg/kg ([1]; dose 10 mg/kg, read-out: Decidualization, percentage inhibition at the dose specified): 50% | melting point: 243 to 245 °C

SMILES: CC1(C)OC(=O)Nc2ccc(-c3ccc(C#N)s3)cc21 [Compound 12, 5-(4,4-Dimethyl-2-oxo-1,4-dihydro-2H-benzo[d][1,3]oxazin-6-yl)-thiophene-2-carbonitrile]
Decidualization IC50 [1]: 3.34 ± 0.22 mg/kg | melting point: 264 to 266 °C

SMILES: CC1(C)OC(=O)Nc2ccc(-c3cccc(Br)c3)cc21 [Compound 13]
Decidualization IC50 [1]: 3 mg/kg | melting point: 174 to 175 °C

SMILES: CC1(C)OC(=O)Nc2ccc(-c3cc(F)cc(Cl)c3)cc21 [Compound 14, 6-(3-Chloro-5fluoro-phenyl)-4,4dimethyl-1,4-dihydro-benzo[d][1,3]oxazin-2-one]
inhibition at 3 mg/kg [1, 2]: 50%

SMILES: N#Cc1cc(F)cc(-c2ccc3c(c2)C(C2CC2)(C2CC2)OC(=O)N3)c1 [Compound 15, 3-(4,4Dicyclopropyl-2-oxo-1,4-dihydro-2H-benzo[d][1,3]oxazin-6-yl)5-fluoro-benzonitrile]
Decidualization IC50 [1]: 3 mg/kg | melting point: 250 to 252 °C

SMILES: CC1(C)OC(=O)Nc2ccc(-c3cc(F)cc(C#N)c3)cc21 [Compound 19, 3-(4,4-Dimethyl-2-oxo-1,4-dihydro-2H-benzo[d][1,3]oxazin-6-yl)-5-fluorobenzonitrile]
Decidualization IC50 [1]: 0.35 mg/kg

SMILES: CC1(C)OC(=O)Nc2ccc(-c3ccc(F)c(Cl)c3)cc21 [Compound 20, 6-(3-Chloro-4-fluoro-phenyl)-4,4-dimethyl-1,4-dihydro-benzo[d][1,3]oxazin-2-one]
Decidualization IC50 [1]: 1 mg/kg

SMILES: CC1(C)OC(=O)Nc2ccc(-c3cccc(F)c3F)cc21 [Example 130, 6-(2,3-Difluoro-phenyl)-4,4dimethyl-1,4-dihydro-benzo[d][1,3]oxazin-2-one]
melting point: 166 to 167 °C

SMILES: CC1(C)OC(=O)Nc2ccc(-c3cc(F)cc(CC#N)c3)cc21 [Example 133, 3-(4,4Dimethyl-2-oxo-1,4-dihydro-2H-benzo[d][1,3]-oxazin-6-yl)-5-fluoro-phenylacetonitrile]
melting point: 218 to 220 °C

SMILES: CC1(C)OC(=O)Nc2ccc(-c3cc(CC#N)ccc3F)cc21 [Example 134, 3-(4,4-Dimethyl-2-oxo-1,4-dihydro2H-benzo[d][1,3]-oxazin-6-yl)-4-fluoro-phenylacetonitrile]
melting point: 184 to 187 °C

SMILES: COc1ccc(-c2ccc3c(c2)C(C)(C)OC(=O)N3)cc1F [Example 138, 6-(3-Fluoro-4-methoxy-phenyl)4,4-dimethyl-1,4-dihydro-benzo[d][1,3]-oxazin-2-one]
melting point: 210 to 211 °C

SMILES: CC1(C)OC(=O)Nc2ccc(-c3ccc(N)nc3)cc21 [Example 142, 6-(6-Amino-pyridin-3-yl)-4,4-dimethyl-1,4-dihydro-benzo[d][1,3]oxazine-2-one]
melting point: 257 to 259 °C

SMILES: CC1(C)OC(=O)Nc2ccc(-c3coc(C=O)c3)cc21 [Example 144, 4-(4,4-Dimethyl-2-oxo-1,4-dihydro-2H-benzo[d][1,3]oxazin-6-yl)-furan-2-carbaldehyde]
melting point: 262 to 263 °C

SMILES: C#C[C@]1(O)CC[C@H]2[C@@H]3CCC4=CC(=O)CC[C@@H]4[C@H]3CC[C@@]21CC [Levonorgestrel, reference compound]
Estimated average EC50 (decidual response) [1]: 0.10 mg/kg | Estimated EC50 for uterine wet weight (decidual response) [1]: 0.08 mg/kg and 0.12 mg/kg and 0.09 mg/kg (2×)

Continued, in another order:

melting point: 211 to 212 °C
SMILES: CC1(C)OC(=O)Nc2ccc(-c3cncc(Br)c3)cc21 [Compound 16, 6-(5-Bromo-pyridin-3-yl)-4,4-dimethyl-1,4-dihydro-benzo[d][1,3]oxazin-2-one]
inhibition at 3 mg/kg [1, 2]: 50%

Decidualization IC50 [1]: 2.3 ± 0.46 mg/kg
SMILES: CC1(C)OC(=O)Nc2ccc(-c3csc(C#N)c3)cc21 [Compound 17, 4-(4.4-Dimethyl-2-oxo-1.4dihydro-2H-benzo[d][1,3]oxazin-6-yl)thiophene2-carbonitrile]

Decidualization IC50 [1]: 1.5 mg/kg
SMILES: Cc1cc(C#N)sc1-c1ccc2c(c1)C(C)(C)OC(=O)N2 [Compound 18, 5-(4. 4-Dimethyl-2-oxo-1. 4-dihydro-2H-benzo[d][1,3]oxazin-6-yl)-4-methyl-thiophene-2-carbonitrile]

melting point: 197 to 198 °C
SMILES: CC1(C)OC(=O)Nc2c(O)cc(-c3cc(F)cc(C#N)c3)cc21 [Example 129, 3-(4,4-Dimethyl-8-hydroxy-2-oxo-1,4-dihydro-2H-3,1-benzoxazin-6yl)-5-fluorobenzonitrile]

melting point: 154 to 155 °C
SMILES: CCN1C(=O)OC(C)(C)c2cc(-c3cc(F)cc(C#N)c3)ccc21 [Example 131, 3-(1-Ethyl-4,4-dimethyl-2-oxo-1,4-dihydro-2H-benzo[d][1,3]oxazin-6-yl)-5-fluoro-benzonitrile]

melting point: 210 to 212.5 °C
SMILES: CC1(C)OC(=O)Nc2ccc(-c3cccc(CC#N)n3)cc21 [Example 132, [6-(4,4-dimethyl-2-oxo-1,4dihydro-2H-3,1-benzoxazin-6-yl)pyridin-2-yl]acetonitrile]

melting point: 253 to 256 °C
SMILES: CC1(C)OC(=O)Nc2ccc(-c3ccc(CC#N)c(F)c3)cc21 [Example 135, 4-(4,4Dimethyl-2-oxo-1,4-dihydro-2H-benzo[d][1,3]oxazin-6yl)-2-fluorophenylacetonitrile]

melting point: 176 to 179 °C
SMILES: CC1(C)OC(=O)Nc2ccc(-c3ccccc3CC#N)cc21 [Example 136, 2-(4,4-Dimethyl 2-oxo-1,4-dihydro-2H-benzo[d][1,3]-oxazin-6-yl)phenylacetonitrile]

melting point: 245 to 247 °C
SMILES: CC(=O)Nc1ccc(-c2ccc3c(c2)C(C)(C)OC(=O)N3)cc1F [Example 137, N-[4-(4,4-Dimethyl-2-oxo-1,4-dihydro-2H-3,1-benzoxazin-6-yl)-2fluoro-phenyl]-acetamide]

Estimated average EC50 (decidual response) [1]: 5.62 mg/kg | Estimated EC50 for uterine wet weight (decidual response) [1]: 5.50 mg/kg
SMILES: CC(=O)[C@H]1CC[C@H]2[C@@H]3CCC4=CC(=O)CC[C@]4(C)[C@H]3CC[C@]12C [Progesterone, reference compound]
